The text below walks through data of patent US9718790B2, “Triazine derivative and pharmaceutical composition having an analgesic activity comprising the same” (SHIONOGI & CO., LTD., priority 2010, dated 2017).

For one assay, the target named is human P2X3 receptor (Homo sapiens (Human), UniProt P56373). Description: Evaluation of human P2X3 receptor inhibitory activity (Fluo-3 calcium fluorescence, FDSS 3000, ATP stimulation).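 Also: stimulus was 50 nM ATP with fluorescence followed for 3 min, and the response per well was peak post-ATP fluorescence divided by the reading at measurement start.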 Type of assay: cell-based. As to conditions: C6BU-1 cells stably expressing human P2X3 receptor.
human P2X3 receptor, sequence (P56373 whole entry): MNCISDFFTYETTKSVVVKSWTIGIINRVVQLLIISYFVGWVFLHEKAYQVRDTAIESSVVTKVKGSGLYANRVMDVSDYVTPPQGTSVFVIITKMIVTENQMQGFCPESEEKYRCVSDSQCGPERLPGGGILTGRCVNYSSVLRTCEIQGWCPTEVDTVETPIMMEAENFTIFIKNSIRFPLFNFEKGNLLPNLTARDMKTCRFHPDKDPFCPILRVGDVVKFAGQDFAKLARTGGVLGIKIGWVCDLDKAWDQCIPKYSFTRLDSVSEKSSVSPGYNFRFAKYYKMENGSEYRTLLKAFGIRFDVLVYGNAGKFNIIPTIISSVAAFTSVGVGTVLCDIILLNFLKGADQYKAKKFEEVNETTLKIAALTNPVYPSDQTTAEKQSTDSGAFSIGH
Turning to `CCCc1ccc(/N=c2\[nH]c(=O)n(C[C@H](C)C(=O)OC)c(=O)n2Cc2ccc(Cl)cc2)cc1C` [Compound I-1211], the IC50 came to 30 nM.

In the case of `Cc1cc2cc(/N=c3\[nH]c(=O)n([C@@H](C)[C@@H](C)C(=O)O)c(=O)n3Cc3ccc(Cl)cc3)ccc2o1` [Compound I-1351], the IC50 was 41 nM.

`Cc1cc(/N=c2\[nH]c(=O)n(Cc3cccnc3OCCO)c(=O)n2Cc2ccc(Cl)cc2)ccc1OC(C)C` [Compound I-0715]: the half-maximal inhibitory concentration (IC50) stood at 13 nM.

For the compound `CCc1oc2ccc(/N=c3\[nH]c(=O)n(C[C@H](C)C(=O)O)c(=O)n3Cc3ccc(Cl)cc3)cc2c1C` [Compound I-1465], the IC50 is 6 nM.

With `CC(C)Oc1ccc(/N=c2\[nH]c(=O)n(CC(=O)NC(CO)CO)c(=O)n2Cc2ccc(Cl)cc2)cc1Cl` [Compound I-0665], the IC50 came out at 4 nM.

`CCOc1ccc(/N=c2\[nH]c(=O)n(C[C@H](C)C(=O)OC)c(=O)n2Cc2ccc(C)cc2)cc1F` [Compound I-0605]: the IC50 stood at 25 nM.

As to `COC(=O)[C@@H](C)Cn1c(=O)[nH]/c(=N\c2ccc3[nH]c(C)cc3c2)n(Cc2ccc(Cl)cc2)c1=O` [Compound I-0692], the IC50 stood at 29 nM.

As to `CCOC(=O)c1cc(Oc2ccc(/N=c3\[nH]c(=O)n(CC)c(=O)n3Cc3ccc(Cl)cc3)cc2)[nH]n1` [Compound I-2192], the IC50 was determined as 8 nM.

With `CCn1c(=O)[nH]/c(=N\c2ccc(Oc3cncc(C(N)=O)c3)cc2)n(Cc2ccc(F)cc2)c1=O` [Compound I-2120], the half-inhibitory concentration (IC50) came out at 33 nM.

Take `CCOC(=O)C1CCC(n2c(=O)[nH]/c(=N\c3ccc(OC(C)C)c(C)c3)n(Cc3ccc(Cl)cc3)c2=O)CC1` (stereo not drawn) [Compound I-0718]: the IC50 came out at 93 nM.

In the case of `CCn1c(=O)[nH]/c(=N\c2ccc(Oc3cc(C(N)=O)on3)cc2)n(Cc2ccc(Cl)cc2)c1=O` [Compound I-2107], the IC50 is 7 nM.

On to `Cc1nc2ccc(/N=c3\[nH]c(=O)n(C[C@H](C)C(=O)O)c(=O)n3Cc3ccc(Cl)cc3)cc2s1` [Compound I-1349], for which the IC50 was determined as 15 nM.

On to `COC(=O)C(C)(C)Cn1c(=O)[nH]/c(=N\c2ccc(OC(C)C)c(OC)c2)n(Cc2ccc(C)cc2)c1=O` [Compound I-1272], for which the half-maximal inhibitory concentration (IC50) came to 7 nM.

Turning to `O=C(O)CCCn1c(=O)[nH]/c(=N\c2ccc(Oc3ccncc3)cc2)n(Cc2ccc(Cl)cc2)c1=O` [Compound I-1259], the IC50 was 11 nM.

As for `CCOC(=O)CCn1c(=O)[nH]/c(=N\c2ccc(OC3CCC3)cc2)n(Cc2ccc(Cl)cc2)c1=O` [Compound I-1283], the IC50 amounted to 4 nM.

Turning to `CCn1c(=O)[nH]/c(=N\c2ccc(Oc3ccc(C(=O)OC)c(F)c3)cc2)n(Cc2ccc(Cl)cc2)c1=O` [Compound I-2218], the IC50 was 3 nM.

On to `CCn1c(=O)[nH]/c(=N\c2ccc(Oc3cc(CO)on3)cc2)n(Cc2ccc(Cl)cc2)c1=O` [Compound I-1968], for which the IC50 worked out at 15 nM.

With `COC(=O)c1cc(Oc2ccc(/N=c3\[nH]c(=O)n(CCOC4CCCCO4)c(=O)n3Cc3ccc(Cl)cc3)cc2)no1` (stereo not drawn) [Compound I-2113], the IC50 came out at 1 nM.

For `CCc1nc2ccc(/N=c3\[nH]c(=O)n(CCCCC(=O)OC)c(=O)n3Cc3ccc(C)cc3)cc2s1` [Compound I-2156], the IC50 turned out to be 2 nM.

As for `CCn1c(=O)[nH]/c(=N\c2ccc(Oc3cncc(OC)n3)cc2)n(Cc2ccc(Cl)cc2)c1=O` [Compound I-2125], the 50% inhibitory concentration (IC50) came to 7 nM.

Regarding `COC(=O)[C@@H](C)Cn1c(=O)[nH]/c(=N\c2ccc(OCC(C)C)cc2)n(Cc2ccc(C)cc2)c1=O` [Compound I-0812], the IC50 is 33 nM.

For the compound `CNC(=O)CCn1c(=O)[nH]/c(=N\c2ccc(OC(C)C)c(Cl)c2)n(CC2CCC(C)CC2)c1=O` (stereo not drawn) [Compound I-2019], the IC50 came out at 5 nM.

Take `CCn1c(=O)[nH]/c(=N\c2ccc(Oc3cncc(C(=O)O)c3)cc2)n(Cc2ccc(Cl)cn2)c1=O` [Compound I-2164]: the IC50 came to 125 nM.

On to `Cn1c(=O)[nH]/c(=N\c2ccc(Oc3ccc(C(=O)O)cc3)cc2)n(Cc2ccc(Cl)cc2)c1=O` [Compound I-2063], for which the IC50 amounted to 120 nM.

`CC(C)Oc1ccc(/N=c2\[nH]c(=O)n([C@@H]3C[C@H]3C(=O)O)c(=O)n2Cc2ccc(Cl)cc2)cc1F` [Compound I-0612]: the IC50 was found to be 38 nM.

For `O=c1[nH]/c(=N\c2ccc(OC3CCC3)cc2)n(Cc2ccc(Cl)cc2)c(=O)n1CCO` [Compound I-2010], the IC50 was found to be 54 nM.

The same assay, now with this note: C6BU-1 cells stably expressing human P2X3 receptor, Fluo-3 fluorescence, FDSS 3000.
For the compound `COCO[C@@H](Cn1c(=O)[nH]/c(=N\c2ccc(OC(C)C)c(C)c2)n(Cc2ccc(Cl)cc2)c1=O)C(=O)OC` [Compound I-0993, (S)-1-(4-chlorobenzyl)-6-(3-mehyl-4-isopropoxyphenylimino)-3-[2-methoxycarbonyl-2-(methoxymethyloxy)ethyl]-1,3,5-triazinane-2,4-dion], the IC50 amounted to 20 nM.

With `CCOC(=O)CCn1c(=O)[nH]/c(=N\c2ccc(OC(CC)CC)cc2)n(Cc2ccc(C)cc2)c1=O` [Compound I-1054], the IC50 amounted to 18 nM.

Take `CCc1nc2ccc(/N=c3\[nH]c(=O)n(CC(C)(C)C(=O)OC)c(=O)n3Cc3ccc(C)cc3)cc2s1` [Compound I-1573]: the IC50 is 4 nM.

Take `Cc1ccc(Cn2c(=O)n(C[C@H](C)C(=O)O)c(=O)[nH]/c2=N\c2ccc(OC3CCOCC3)nc2)cc1` [Compound I-1120]: the IC50 was 534 nM.

In the case of `C=Cc1ccc(Cn2c(=O)n(C[C@H](C)C(=O)OC)c(=O)[nH]/c2=N\c2ccc(OC(C)C)cc2)cc1` [Compound I-1131], the IC50 worked out at 105 nM.

Regarding `Cc1cc(Oc2ccc(/N=c3\[nH]c(=O)n(CCCO)c(=O)n3Cc3ccc(Cl)cc3)cc2)no1` [Compound I-1835], the IC50 was determined as 8 nM.

As for `COC(=O)[C@@H](C)Cn1c(=O)[nH]/c(=N\c2ccc(Oc3cccnc3)cc2)n(Cc2ccc(C)cc2)c1=O` [Compound I-1126], the IC50 was 8 nM.

As to `CCOc1ccc(/N=c2\[nH]c(=O)n([C@@H](C)[C@@H](C)C(=O)OC)c(=O)n2Cc2ccc(C)cc2)cc1Cl` [Compound I-0966], the IC50 turned out to be 17 nM.

Turning to `COC(=O)[C@@H](C)Cn1c(=O)[nH]/c(=N\c2cccc(Br)c2)n(Cc2ccc(C)cc2)c1=O` [Compound I-1077], the IC50 amounted to 64 nM.

In the case of `CCOc1ccc(/N=c2\[nH]c(=O)n(C[C@H](C)C(=O)O)c(=O)n2Cc2ccc(C)cc2)cc1Br` [Compound I-1179], the IC50 was determined as 33 nM.

As for `CC(C)Oc1ccc(/N=c2\[nH]c(=O)n(CC3(C(=O)O)COC3)c(=O)n2Cc2ccc(Cl)cc2)cc1Cl` [Compound I-1011], the IC50 was found to be 21 nM.

On to `CC1CCC(Cn2c(=O)n(CCC(=O)O)c(=O)[nH]/c2=N\c2ccc(OC(C)C)c(F)c2)CC1` (stereo not drawn) [Compound I-1750], for which the IC50 turned out to be 21 nM.

In the case of `CCOc1ccc(/N=c2\[nH]c(=O)n([C@@H](C)[C@@H](C)C(=O)OC)c(=O)n2Cc2ccc(Cl)cc2)cc1Cl` [Compound I-0916], the IC50 stood at 19 nM.

In the case of `O=C(NCCO)c1cc(Oc2ccc(/N=c3\[nH]c(=O)[nH]c(=O)n3Cc3ccc(Cl)cc3)cc2)ccn1` [Compound I-1897], the IC50 came out at 24 nM.

Consider `COC(=O)[C@@H](C)Cn1c(=O)[nH]/c(=N\c2ccc(N3CCCCC3)cc2)n(Cc2ccc(C)cc2)c1=O` [Compound I-1085], for which the IC50 was determined as 34 nM.

`CCc1ccc(Cn2c(=O)n(C[C@H](C)C(=O)O)c(=O)[nH]/c2=N\c2ccc(OC(C)C)c(C)c2)cc1` [Compound I-0898, (S)-1-(4-ethylbenzyl)-6-(3-mehyl-4-isopropoxyphenylimino)-3-(2-hydroxycarbonylpropyl)-1,3,5-triazinane-2,4-dion]: the IC50 came to 20 nM.

For `COC(=O)CC1(Cn2c(=O)[nH]/c(=N\c3ccc(OC(C)C)c(Cl)c3)n(Cc3ccc(C)cc3)c2=O)CC1` [Compound I-0979], the IC50 was determined as 6 nM.

Staying with this assay, now noted: human P2X3 receptor, Test Example 1.
Consider `Cc1cncc(Oc2ccc(/N=c3\[nH]c(=O)n(CC(CO)CO)c(=O)n3Cc3ccc(Cl)cc3)cc2)n1` [Compound I-2709], for which the IC50 came to 6 nM.

For `O=c1[nH]/c(=N\c2ccc(Oc3ccn[nH]3)cc2)n(Cc2ccc(Cl)cc2)c(=O)n1C[C@H](O)CO` [Compound I-2453], the IC50 worked out at 64 nM.

Regarding `CNC(=O)Cn1c(=O)[nH]/c(=N\c2ccc(Oc3nccs3)cc2)n(Cc2ccc(Cl)cc2)c1=O` [Compound I-2645], the IC50 was determined as 18 nM.

For the compound `COC(=O)C1(Cn2c(=O)[nH]/c(=N\c3ccc(OC(C)C)c(C)c3)n(Cc3ccc(Cl)cc3)c2=O)COC1` [Compound I-1480], the IC50 worked out at 2 nM.

With `CCn1c(=O)[nH]/c(=N\c2ccc(Oc3cncc(C(=O)O)n3)cc2)n(Cc2ccc(C)cc2)c1=O` [Compound I-2474], the IC50 came out at 7 nM.

In the case of `CCn1c(=O)[nH]/c(=N\c2ccc(Oc3ccc(C(N)=O)cc3)nc2)n(Cc2ccc(Cl)cc2)c1=O` [Compound I-2620], the IC50 stood at 110 nM.

`CCn1c(=O)[nH]/c(=N\c2ccc(Oc3ccnc(C(=O)NC)c3)c(OC)c2)n(Cc2ccc(Cl)cc2)c1=O` [Compound I-2251]: the IC50 was 5 nM.

Consider `CCn1c(=O)[nH]/c(=N\c2ccc(Oc3cccc(C(=O)O)c3)cc2)n(C[C@H]2CC[C@H](C)CC2)c1=O` [Compound I-2354], for which the IC50 was found to be 3 nM.

In the case of `O=C(O)Cn1c(=O)[nH]/c(=N\c2ccc(Oc3nccs3)cc2)n(Cc2ccc(Cl)cc2)c1=O` [Compound I-2623], the IC50 was 506 nM.

On to `CCn1c(=O)[nH]/c(=N\c2ccc(Oc3nc(C(=O)O)cs3)cc2)n(C[C@H]2CC[C@H](C)CC2)c1=O` [Compound I-2348], for which the IC50 was determined as 4 nM.

As for `CCc1ccc(Cn2c(=O)n(C[C@H](C)C(=O)OC)c(=O)[nH]/c2=N\c2ccc(OC(C)C)c(C)c2)cc1` [Compound I-0894, (S)-1-(4-ethylbenzyl)-6-(3-mehyl-4-isopropoxyphenylimino)-3-(2-methoxycarbonylpropyl)-1,3,5-triazinane-2,4-dion], the half-maximal inhibitory concentration (IC50) worked out at 28 nM.

Take `CC[C@@H](Cn1c(=O)[nH]/c(=N\c2ccc(OC(C)C)c(C)c2)n(Cc2ccc(Cl)cc2)c1=O)C(=O)O` [Compound I-0889]: the IC50 came out at 53 nM.

Regarding `CCn1c(=O)[nH]/c(=N\c2ccc(Oc3cncc(C(N)=O)n3)cc2)n(Cc2ccc(C)cc2)c1=O` [Compound I-2472], the IC50 was 3 nM.

As for `CNC(=O)CCn1c(=O)[nH]/c(=N\c2ccc(Oc3ccon3)cc2)n(Cc2ccc(Cl)cc2)c1=O` [Compound I-2527], the IC50 came to 26 nM.

In general, IC50 refers to the concentration that inhibits the measured activity by half.
